Among the data in patent publication US20250186456A1, “PYRIMIDINE-FUSED CYCLIC COMPOUND AND PREPARATION METHOD AND USE THEREOF” (Genfleet Therapeutics (Shanghai) Inc., priority 2021, published 2025) are IC50 values, retold here.

Common to all, as to format: cell-based, human
The test system of assay [1] is AsPC-1 cells (KRAS G12D mutation). Nature of the assay: Cell proliferation inhibition assay, 3D, CellTiter-Glo 3D, AsPC-1. As to conditions: AsPC-1 3D sphere model, 5 days incubation. An excerpt: (§1) AsPC-1 was purchased from ATCC; catalog No: CRL-1682; AGS was purchased from ATCC; catalog No: CRL-1739; RPMI1640 was purchased from Gibco; catalog No: 11875-093 2235123; F12K was purchased from Gibco; catalog No: 21127-022; FBS was purchased from Gibco; catalog No: 10099-141C; trypsin (containing EDTA) was purchased from Gibco; catalog No: 25200-072; CellTiter Glo-3D was purchased from Progema; catalog No: G9683; 384-well sphere plates were purchased from Corning; catalog No: 3830; white opaque 384-well plates were purchased from Corning; catalog No: 3570; cell counters were purchased from CHEMOMETEC; model: NC-200; microplate reader was purchased from PerkinElmer; model: Envison;
(§2) AsPC-1 is an endogenous human pancreatic cancer cell containing KRAS^G12D mutation, cultured in RPMI-1640 medium containing 10% FBS; AGS is a human gastric cancer cell line containing KRAS^G12D, cultured in F-12K medium containing 10% FBS. Cells in the logarithmic growth phase were taken, digested with trypsin (containing EDTA), collected, and counted. 800 AsPC-1 cells/well or 400 AGS cells/well, respectively, were seeded in a 384-well sphere plate and cultured overnight at 5% CO2 to establish a 3D cell model. 1000X stock solutions of compounds at a 3.16-fold concentration gradient of were prepared using DMSO, diluted 100-fold into a 10X compound stock solution using the medium described above. The 10X compound stock solution was added to each cell on 2nd day after cell seeding at a final concentration of 1X and a DMSO content of 0.1%. DMSO was used as a control in the experiment, and the medium was used as blank. After the addition of the compounds, the cells were incubated for 5 days. 30 μl of CellTiter-Glo work solution was added to each well, mixed well, and incubated for 30 minutes. After standing at room temperature for 30 minutes, 40 μl of the mixed solution was transferred to an opaque 384-well plate with a white clear bottom. Luminescence chemiluminescence value was read by a microplate reader, and the cell proliferation inhibition rate (IR (%)=(RLU control-RLU compound)/(RLU control-RLU blank)×100%) was calculated. The gradiently diluted concentration of the compounds and corresponding cell proliferation inhibition rate were fitted using XLFit four-parameters method, and the IC50 value was calculated. […] The results of some exemplary compounds are shown in Table 2 (“−” represents untested).

The test system of a further assay is AGS cells (KRAS G12D). Nature of the assay: Cell proliferation inhibition assay, 3D, CellTiter-Glo 3D, AGS. As to conditions: AGS 3D sphere model, 5 days incubation.
Excerpt: as §1, §2
For orientation: In ATP-based viability assays light output follows the ATP content of the culture.

The test system of assay [2] is p-ERK in AGS cells (KRAS G12D mutation). Nature of the assay: Cell p-ERK assay (HTRF, Advance ERK phospho-T202/Y204 kit). As to conditions: AGS cells, 3 hours incubation with compound, HTRF, read-out: AGS p-ERK IC50. How it is done:
AGS was purchased from ATCC; catalog No: CRL-1739; F12K was purchased from Gibco; catalog No: 21127-022; FBS was purchased from Gibco; catalog No: 10099-141C; trypsin (containing EDTA) was purchased from Gibco, catalog No: 25200-072; DMSO was purchased from VWRAMRESCO; catalog No: 0231-500 ML; 96-well cell culture plates were purchased from Corning; catalog No: 3599; white opaque 96-well plates were purchased from Cisbio; catalog No: 66PL96025; Advance ERK phospho-T202/Y204 kit was purchased from Cisbio; catalog No: 64AERPEH; cell counters were purchased from CHEMOMETEC; model No: NC-200; microplate reader was purchased from PerkinElmer; model No: Envison.
AGS is an endogenous human gastric adenocarcinoma cell line containing the KRAS^G12D mutation, cultured in F12K+10% FBS medium. On the first day of the experiment, cells in the logarithmic growth phase were taken, digested with trypsin (containing EDTA), collected, and counted. Approximately 20000 cells/well were seeded in a 96-well cell culture plate and cultured overnight in an incubator with 5% CO2. 1000X stock solutions of compounds at a 3.16-fold concentration gradient were prepared using DMSO, and diluted 200-fold into a 5X compound stock solution using the medium described above. The 5X compound stock solution was added to each cell culturing well the day after cell seeding at a final concentration of 1X and a DMSO content of 0.1%. DMSO was used as a control in the experiment. After the compound was added and the incubation was kept for 3 hours, the medium in the culture wells was removed. 50 μl of Cell lysis solution (from Advance ERK phospho-T202/Y204 kit, the same below) was added to each well, mixed well, and incubated for 30 minutes and then 16 μl of the mixed solution was transferred to a white opaque 96-well plate, another 16 μl of cell lysis solution was added to a well as a blank well. After transferring, 4 μl of p-ERK HTRF antibody mixture (from Advance ERK phospho-T202/Y204 kit) was added to each well. After incubation for 4 hours, HTRF fluorescence value (RLU) was read by a microplate reader, and p-ERK level inhibition rate (IR (%)=(RLU control-RLU compound)/(RLU control-RLU blank)×100%) of the compounds was calculated. The concentration of the compounds and corresponding cell p-ERK level inhibition rate were fitted using Prism 8 four-parameters method, and the IC50 value was calculated.
On the technique in general: In TR-FRET formats the signal depends on donor and acceptor labels being close together.

Structures are written as SMILES. Where two headings read alike, the source gives them in different places.

The term IC50 denotes the concentration that gives 50% inhibition. Turning to `C#Cc1cccc2cc(N)cc(-c3nc4c5c(nc(OCC6(CN(C)CC(F)(F)F)CC6)nc5c3F)N3C[C@H]5CC[C@H](N5)[C@H]3[C@H](C)O4)c12` [Example Z714, 5-Ethynyl-4-((5S,5aS,6S,9R)-1-Fluoro-5-Methyl-12-((1-((Methyl(2,2,2-Trifluoroethyl)Amino)Methyl)Cyclopropyl)Methoxy)-5a,6,7,8,9,10-Hexahydro-5H-4-Oxa-3,10a,11,13,14-Pentaaza-6,9-Methanonaphtho[1,8-Ab]Heptalen-2-Yl) Naphthalen-2-Amine], the half-inhibitory concentration (IC50) in assay [1] (Homo sapiens, ASPC1, 120 h) was determined as 815 nM; in the assay on AGS cells (KRAS G12D) (Homo sapiens, 120 h), 673 nM; in assay [2] (Homo sapiens), 622 nM.

In the case of `C#Cc1c(Cl)ccc2cccc(-c3nc4c5c(nc(OCC67CCCN6CC(=C)C7)nc5c3F)N3C[C@H]5CC[C@H](N5)[C@H]3[C@H](C)O4)c12` (stereo partly drawn) [Example Z593, (5S,5aS,6S,9R)-2-(7-chloro-8-ethynylnaphthalen-1-yl)-1-fluoro-5-methyl-12-((2-methylenetetrahydro-1H-pyrrolizin-7a (5H)-yl)methoxy)-5a,6,7,8,9,10-hexahydro-5H-4-oxa-3,10a, 11,13, 14-pentaaza-6,9-methanonaphtho[1,8-ab]heptalene], the half-inhibitory concentration (IC50) in assay [1] (Homo sapiens, ASPC1, 120 h) was found to be 78.8 nM; in the assay on AGS cells (KRAS G12D) (Homo sapiens, 120 h), 35.4 nM; in assay [2] (Homo sapiens) it was 29 nM.

In the case of `C#Cc1c(F)ccc2cccc(-c3nc4c5c(nc(OCC67CCCN6[C@@H]6C[C@@H]6C7)nc5c3F)N3C[C@H]5CC[C@H](N5)[C@H]3[C@H](C)O4)c12` (stereo partly drawn) [Example Z624, (5S,5aS,6S,9R)-2-(8-ethynyl-7-fluoronaphthalen-1-yl)-1-fluoro-12-(((1aR,6aR)-hexahydrocyclopropa[b]pyrrolizin-5a (3H)-yl)methoxy)-5-methyl-5a,6,7,8,9,10-hexahydro-5H-4-oxa-3,10a, 11, 13, 14-pentaaza-6,9-methanonaphtho[1,8-ab]heptalene], the IC50 in assay [1] (Homo sapiens, ASPC1, 120 h) was found to be 194 nM; with AGS cells (KRAS G12D) (Homo sapiens, 120 h), 88.2 nM; in assay [2] (Homo sapiens), 47.3 nM.

For the molecule `C#Cc1c(F)ccc2cccc(-c3nc4c5c(nc(OCC67CC(=C)CN6C[C@H]6C[C@H]67)nc5c3F)N3C[C@H]5CC[C@H](N5)[C@H]3[C@H](C)O4)c12` (stereo partly drawn) [Example Z606, (5S,5aS,6S,9R)-2-(8-ethynyl-7-fluoronaphthalen-1-yl)-1-fluoro-5-methyl-12-(((1aS,6bR)-5-methylenehexahydrocyclopropa[a]pyrrolizin-6a (4H)-yl)methoxy)-5a,6,7,8,9,10-hexahydro-5H-4-oxa-3,10a,11,13,14-pentaaza-6,9-methanonaphtho[1,8-ab]heptalene], the IC50 in assay [1] (Homo sapiens, ASPC1, 120 h) stood at 802 nM; with AGS cells (KRAS G12D) (Homo sapiens, 120 h) it was 908 nM; in assay [2] (Homo sapiens), 874 nM.

In the case of `C#Cc1c(F)ccc2cc(O)cc(-c3nc4c5c(nc(OCC67CC(=C)CN6CC(=C)C7)nc5c3F)N3C[C@H]5CC[C@H](N5)[C@H]3CO4)c12` [Example Z380, 4-((5aS,6S,9R)-12-((2,6-Dimethylenetetrahydro-1H-Pyrrolizin-7a (5H)-Yl)Methoxy)-1-Fluoro-5a,6,7,8,9,10-Hexahydro-5H-4-Oxa-3,10a,11,13,14-Pentaaza-6,9-Methanonaphtho[1,8-Ab]Heptalen-2-Yl)-5-Ethynyl-6-Fluoronaphthalen-2-Ol], the IC50 in assay [1] (Homo sapiens, ASPC1, 120 h) worked out at 26.2 nM; with AGS cells (KRAS G12D) (Homo sapiens, 120 h), 2.68 nM; in assay [2] (Homo sapiens) it was 0.78 nM.

Regarding `Cc1cc(-c2nc3c4c(nc(OCC5(CN6CCOCC6)CC5)nc4c2F)N2C[C@H]4CC[C@H](N4)[C@H]2[C@H](C)O3)c(C)c(N)c1C1CC1` [Example Z716, 2-cyclopropyl-5-((5S,5aS,6S,9R)-1-fluoro-5-methyl-12-((1-(morpholinomethyl)cyclopropyl)methoxy)-5a,6,7,8,9,10-hexahydro-5H-4-oxa-3,10a, 11,13,14-pentaaza-6,9-methanonaphtho[1,8-ab]heptalen-2-yl)-3,6-dimethylaniline], the IC50 was found to be 89.2 nM in assay [1] (Homo sapiens, ASPC1, 120 h); 48.6 nM in the assay on AGS cells (KRAS G12D) (Homo sapiens, 120 h); 81.8 nM in assay [2] (Homo sapiens).

With `C#Cc1c(F)ccc2cccc(-c3nc4c5c(nc(OC[C@]67CCCN6CCC7=C)nc5c3F)N3C[C@H]5CC[C@H](N5)[C@H]3[C@H](C)O4)c12` (single isomer, unassigned) [Example Z638], the IC50 in assay [1] (Homo sapiens, ASPC1, 120 h) worked out at 32 nM; in the assay on AGS cells (KRAS G12D) (Homo sapiens, 120 h) it was 19.7 nM; in assay [2] (Homo sapiens) it was 7.79 nM.

`C#Cc1c(F)ccc2cccc(-c3nc4c5c(nc(OCC67CCCN6CC(=CF)C7)nc5c3F)N3C[C@H]5CC[C@H](N5)[C@H]3[C@H](C)O4)c12` (stereo partly drawn) [Example Z601, (5S,5aS,6S,9R)-2-(8-ethynyl-7-fluoronaphthalen-1-yl)-1-fluoro-12-((2-(fluoromethylene)tetrahydro-1H-pyrrolizin-7a (5H)-yl)methoxy)-5-methyl-5a,6,7,8,9,10-hexahydro-5H-4-oxa-3,10a, 11, 13, 14-pentaaza-6,9-methanonaphtho[1,8-ab]heptalene]: the IC50 amounted to 39 nM in assay [1] (Homo sapiens, ASPC1, 120 h); 13.5 nM in the assay with AGS cells (KRAS G12D) (Homo sapiens, 120 h); 10.5 nM in assay [2] (Homo sapiens).

Regarding `C#Cc1cccc2cc(N)cc(-c3nc4c5c(nc(OCC67CC(=C)CN6CC(F)(F)C7)nc5c3F)N3C[C@H]5CC[C@H](N5)[C@H]3[C@H](C)O4)c12` (stereo partly drawn) [Example Z711, 4-((5S,5aS,6S,9R)-12-((2,2-difluoro-6-methylenetetrahydro-1H-pyrrolizin-7a (5H)-yl)methoxy)-1-fluoro-5-methyl-5a,6,7,8,9,10-hexahydro-5H-4-oxa-3,10a,11,13,14-pentaaza-6,9-methanonaphtho[1,8-ab]heptalen-2-yl)-5-ethynylnaphthalen-2-amine], the half-inhibitory concentration (IC50) in assay [1] (Homo sapiens, ASPC1, 120 h) was 85.6 nM; in the assay on AGS cells (KRAS G12D) (Homo sapiens, 120 h), 54.2 nM; in assay [2] (Homo sapiens) it was 13.3 nM.

`C#Cc1c(F)ccc2cccc(-c3nc4c5c(nc(OC[C@]67CC(=C)CN6CC[C@@H]7OC)nc5c3F)N3C[C@H]5CC[C@H](N5)[C@H]3[C@H](C)O4)c12` (single isomer, unassigned) [Example Z695]: the concentration for half-maximal inhibition (IC50) in assay [1] is 77.7 nM; in the assay with AGS cells (KRAS G12D), 36.1 nM; in assay [2] it was 4.71 nM.

As for `C#Cc1cccc2cccc(-c3nc4c5c(nc(OCC67CCCN6CC(=C)C7)nc5c3F)N3C[C@H]5CC[C@H](N5)[C@H]3[C@H](CC)O4)c12` (stereo partly drawn) [Example Z595, (5S,5aS,6S,9R)-5-ethyl-2-(8-ethynylnaphthalen-1-yl)-1-fluoro-12-((2-methylenetetrahydro-1H-pyrrolizin-7a (5H)-yl)methoxy)-5a,6,7,8,9,10-hexahydro-5H-4-oxa-3,10a,11,13,14-pentaaza-6,9-methanonaphtho[1,8-ab]heptalene], the IC50 in assay [1] (Homo sapiens, ASPC1, 120 h) amounted to 157 nM; with AGS cells (KRAS G12D) (Homo sapiens, 120 h), 99 nM; in assay [2] (Homo sapiens) it was 119 nM.
